Measured values from US9545393B2, “Methods and compositions for treating pain” (The Board of Trustees of the Leland Stanford Junior …, priority 2012, dated 2017).
“Also recorded” adds a separate entry of the source.

Columns and labels:
mast cell chymase = test: Western blot of mast cell chymase in paw after carrageenan; assay type: in vivo, rat; conditions: rats, 3 hours after carrageenan; Alda-1 versus vehicle
Method: Biochemical Studies In Rats and Mice. Protein was isolated from rat paw tissue at 3 hours after treatment or from liver tissue of mutant or wild type mice. Tissues were homogenized in buffer containing (Hepes 10 mM, NaCl 0.9%, EGTA 1 mM, DTPA 100 μM, Triton-X 1%, Protease and Phosphatase inhibitors (AEBSF, Aprotinin, Bestatin, E-64, Leupeptin, Pepstatin A, Sodium orthovanadate, Sodium molybdate, Sodium tartrate, Imidazole, Cantharidin, (−)-p-Bromolevamisole oxalate and Calyculin A). The samples were centrifuged at 700 g for 5 min at 4° C. Mitochondrial fraction from liver was obtained as previously described (Chen, et al. (2008) Activation of aldehyde dehydrogenase-2 reduces ischemic damage to the heart. Science 321, 1493-1495; Sun, L., et al. ALDH2 activator inhibits increased myocardial infarction injury by nitroglycerin tolerance. Sci Transl Med 3, 107ra111). Activation of aldehyde dehydrogenase-2 reduces ischemic damage to the heart. Science 2008; 321:1493-5). The protein concentration was determined in the supernatants by using Bradford (Bradford, M. M. (1976). A rapid and sensitive method for the quantitation of microgram quantities of protein utilizing the principle of protein-dye binding. Anal Biochem 72, 248-254).
Western blot analysis. […] Quantification analysis of blots was performed with Image J software, using GAPDH as a loading control.

[1] = test system: rats subjected to prostaglandin E2 insult to the right hind paw; test: Randall-Selitto paw pressure test, prostaglandin E2-induced hyperalgesia in rats; assay type: in vivo, rat
Method: Rats. Male Wistar rats (170-190 g) were provided by Charles River Laboratories or Butantan Institute Animal Facility and housed in a temperature-controlled (22±1° C.) and light-controlled (12/12 h light/dark cycle) room. All rats were housed in their surrounding for at least 3 days. Groups of 5-6 rats were used.
Drugs Used. 0.1 ml saline (control), carrageenan (200 μg for rats, 100 μg for mice; Marine Colloids), or prostaglandin E2 (100 ng, Sigma) was administered by intraplantar injection into the right hind paw to induce hyperalgesia. […]
Nociception Assessment. […] Nociceptive response was assessed by the von Frey method for mice and the Randall-Selitto method for rats immediately before and 180 minutes after carrageenan or prostaglandin E2 injection. […]
Randall-Selitto method: Nociceptive threshold was determined using the Randall-Selitto paw pressure test (Ugo-Basile), as previously described (Gutierrez V P, et al., (2008) Crotalphine induces potent antinociception in neuropathic pain by acting at peripheral opioid receptors. European journal of pharmacology 594: 84-92). […]

acetaldehyde = test: Tissue acetaldehyde measurement in paw by LC-MS/MS; assay type: in vivo, rat; conditions: rats, Alda-1 versus carrageenan alone
Method: Tissue Acetaldehyde Measurements. Paw samples were quickly sealed in microcentrifuge tubes, weighed and 3 volumes (v/w) of 0.75 mg/mL Liberase T L (Roche, Indianapolis, Ind.) was added for overnight digestion at 37° C. Acetaldehyde standard solutions (100-5000 ng/mL) and the tissue samples were reacted with saturated 2,4 dinitrophenylhydrazine solution.
To establish LC-MS/MS conditions, the standard of acetaldehyde 2,4-dinitrophenyl-hydrazine (DNPH) was used. Chromatograms of standards were used to establish characteristic retention times of acetaldehyde, and verified the MS signal was linear over the range of 0.1-5 μg/mL. The acetaldehyde peak area derivatives were calculated and plotted against the concentration of the calibration standards using Analyst®1.5.1 software.
Aliquots (30 μL) were taken from each paw homogenate sample. Acetaldehyde in samples of paw homogenate was extracted by adding methanol containing 40 μg/mL DNPH (150 μL). Both unknown samples and standards were vortexed and centrifuged to separate the precipitate. Ten microliters of sample extracts were injected into LC MS/MS for analysis. Automatic peak detection, integration and data processing were performed by the AB SCIEX Analyst 1.5.1 software package. Concentrations of acetaldehyde were calculated by plotting peak area of unknown samples against a standard curve. […]

[2] = previously shown (Chen 2008; Koda 2010); cited from earlier work

O=C(NCc1ccc2c(c1)OCO2)c1c(Cl)cccc1Cl [Alda-1, N-(1,3-benzodioxol-5-ylmethyl)-2,6-dichlorobenzamide]
Mast cell chymase level in the paw (mast cell chymase): no differences; also recorded: increased equally
Increase of nociceptive threshold ([1]; prostaglandin E2-induced model, Alda-1 2 mg/kg s.c. 15 min before and 30 and 150 min after insult, tested 3 hours after insult): 2 fold
Nociceptive threshold (FIG. 1B) ([1]; prostaglandin E2 insult, Alda-1 2 mg/kg s.c., 3 hours after insult, P<0.001): significantly increased nociceptive threshold
Decrease of the level of acetaldehyde in paw (acetaldehyde; carrageenan-induced hyperalgesia): ~50%
Carrageenan-induced acetaldehyde levels in inflamed paw (FIG. 2F) (acetaldehyde; P<0.05): significantly reduced
Cardiovascular benefits after acute myocardial infarction [2]: reducing infarct size and arrhythmias
